US20050084471A1, “Concentrated antimicrobial compositions and methods” (3M Innovative Properties Company, priority 2003, published 2005)

What was measured:
[1] = system: Staph. aureus, ATCC 25923; assay: In vitro kill test of diluted formulations at 5° C., log reduction; type: cell-based, Staphylococcus aureus
[2] = system: E. coli 0157:H7 (ATCC# 700728); assay: Dip treatment of inoculated beef adipose, log reduction; type: cell-based; conditions: formulations diluted to 1% w/w + 2% lactic acid; for Log Reduction, 60 min at 5° C. / Log Reduction, 24 hours at 5° C.: 5 min treatment
Description: Bacteria were grown in the same procedure described in Example 3. The bacteria strain was non-toxic E. coli 0157: H7 (ATCC# 700728).
After inoculation, the meat pieces were placed in a cooler at 5° C. for 30+/−5 minutes to allow attachment of the organisms.
A 11.4 cm^2 coring device was used to cut surface tissue excisions no thicker than 3 mm from the inoculated samples. The stainless steel coring device was disinfected prior to each run to prevent cross-contamination among the samples. Each circular tissue excision was placed in a filter stomacher bag with 15 ml of letheen diluent and stomached for 1 minuted prior to plating.
A 11.4 cm^2 coring device was used to cut surface tissue excisions no thicker than 3 mm from the inoculated samples. The stainless steel coring device was disinfected prior to each run to prevent cross-contamination among the meat samples.
The solution was shaken well until a milky emulsion formed. The emulsion solutions were used immediately after being made.
The circles were removed immediately and the excess solution was allowed to drip from the circle for 5 sec.
The circles were placed in stomacher bags. Two of them were placed into the refrigerator and the third was tested by adding 15 ml of Letheen diluent to the third stomacher bag. This bag was stomached for 1 minute prior to plating. Duplicate samples were plated from the undiluted sample in the stomacher bag. Serial ten-fold dilutions were made and plated on a [sequence] EB plate from each dilution. After incubation the plates were counted as recommended on the package insert. After 1 h refrigeration, one of the refrigerated stomacher bags was removed and the above steps repeated for the 1 h test circle. After 24 h refrigeration, the last of the stomacher bags was removed and the above steps repeated for the 24 h test circle.
Plates were read after incubation and log reductions determined as indicated in Example 3.

CC(O)C(=O)O (stereo not drawn) [2% Lactic Acid, Lactic Acid]
Log Reduction [1]: <2.72 log | Log Reduction, 60 min at 5° C. ([2]; solution at 5° C.): 1.37 log | Log Reduction, 24 hours at 5° C. ([2]; solution at 5° C.): 2.26 log | Log Reduction, 60 min at 5° C. ([2]; solution at 23° C.): 1.74 log | Log Reduction, 60 min at 5° C. ([2]; solution at 50° C.): 2.43 log | Log Reduction, 24 hours at 5° C. ([2]; solution at 50° C.): 2.54 log | Log Reduction, 5 min dip ([2]; solution at 5° C.): 0.51 log | Log Reduction, 5 min dip ([2]; solution at 23° C.): 0.87 log | Log Reduction, 5 min dip ([2]; solution at 50° C.): 1.72 log
